The values that follow come from article PMC12406195, “Understanding the Modes of Action of β‑Ketoiminato Iridium(III) Complexes in Cancer Cells” (Inorganic Chemistry, 2025).

One data set concerns ARPE-19 cells. Briefly: Chemosensitivity (MTT cell viability) assay, noncancerous ARPE-19. The format is cell-based, human. The settings on record: ARPE-19 noncancerous, 96 h, n = 9. As to the method: The cytotoxicity of the compounds against the cancer cell lines was also compared to the noncancerous retinal epithelial cell line, ARPE-19, to determine the possibility of cancer cell selectivity. […]
(§1) All cytotoxicity assays were conducted using human cell lines: breast adenocarcinomas (MDA-MB-231 and MCF-7), pancreatic carcinoma (MIA PaCa-2) and non-cancerous epithelial retinal (ARPE-19) cell lines. All cell lines were routinely maintained as monolayer cultures in appropriate complete media:
(§2) MCF-7, MIA PaCa-2 and ARPE-19 in high glucose DMEM and MDA-MB-231 in RPMI-1640, and both media were supplemented with 10% FBS, 1 mM sodium pyruvate, 2 mM L-glutamine, and 1% pen-strep. All cells were initially grown in T-25 or T-75 flasks at 37 °C and 5% CO2. Before chemosensitivity studies, cell monolayers were passaged using trypsin-EDTA (0.05%) and diluted to a concentration of 1 x 10^4 cells/mL (or 4 x 10^4 cells mL for 24 h assays). All assays were conducted in 96-well plates, in which 100 µL of the cell suspension was added for 24 h at 37 °C and 5% CO2, and then 100 µL of compound/medium dilutions for a further 96 h (or 24 h). All compound stocks were made using sterile DMSO at 100 mM before dilution, and a maximum of 0.1% DMSO was used in each assay. After incubation, 3-(4,5-dimethylthiazol-2-yl)-2,5-diphenyltetrazolium bromide (20 µL, 5 mg/mL in PBS) was added to each well and incubated for 3 h at 37°C and 5% CO2. All solutions were then aspirated, DMSO (150 µL) added to each well, gently mixed, and the absorbance was measured at 540 nm using a ClarioStar spectrophotometer microplate reader. Results were plotted on a logarithmic scale, and the half maximal inhibitory concentration (IC50) was determined from a triplicate of triplicate repeats (n = 9) and reported as an IC 50 ± Standard Deviation (SD).

A further data set has as its system MDA-MB-231 cells. The data set is described as follows: Chemosensitivity (MTT cell viability) assay, MDA-MB-231. Format: cell-based, human. The conditions noted are these: for IC50: n = 9; for Selectivity index (SI): MDA-MB-231 compared to ARPE-19, 96 h. As to the method: as §1, §2
The test system of the next data set is MCF-7 cells. The data set is described as follows: Chemosensitivity (MTT cell viability) assay, MCF-7. The format is cell-based, human. The conditions noted are these: for IC50: MCF-7, 96 h, n = 9; for Selectivity index (SI): MCF-7 compared to ARPE-19, 96 h. As to the method: as §1, §2
A further data set has as its system MIA PaCa-2 cells. The data set is described as follows: Chemosensitivity (MTT cell viability) assay, MIA PaCa-2. The settings on record: for IC50: MIA PaCa-2, 96 h, n = 9; for Selectivity index (SI): MIA PaCa-2 compared to ARPE-19, 96 h. The format is cell-based, human. As to the method:
as §1, §2

For another data set, the system named is plasmid DNA. The data set is described as follows: Plasmid DNA interaction, agarose gel electrophoresis. The format is biochemical. The settings on record: 200 ng plasmid DNA, 100–400 μM, cell-free. How it is done: The ability of compounds to intercalate, nick, or cleave DNA can be evaluated using gel electrophoresis with plasmid DNA. In this study, in vitro plasmid DNA assays were performed by incubating 200 ng of plasmid DNA with different concentrations (100–400 μM) of 1 or CDDP, which served as a positive control. The DNA fragments were then separated via agarose gel electrophoresis, and potential changes in DNA migration patterns were analyzed.
5 Plasmid DNA (200 ng) was incubated with varying concentrations (100, 200, and 400 μM) of compound 1 or CDDP for 24 h at room temperature. The DNA was then separated via agarose gel electrophoresis, and the intensity of supercoiled and nicked circular DNA bands was quantified and expressed as mean ± SEM (n = 4).
MDA-MB-231 cells at 4000 cells/well were seeded into a black clear -bottom 96-well plate using phenol-red free complete RMPI medium, and incubated for 48 h. […] Fluorescence images were obtained using a Zeiss Observer 7 inverted microscope at excitation at 488 nm and emission at 509 […]
Plasmid DNA (200 ng, pBOS -H2B-GFP, BD Biosciences) was incubated overnight at room temperature with 1 or CDDP at concentrations between 100 and 400 μM in double -distilled H2O (20 μL total volume). […] The experiment was conducted in two biological replicates, and the band intensities were quantified and analyzed using ImageJ software. […]

Data set [1] is described as follows: Stability by UV/vis spectroscopy in fully supplemented phenol-red free media. The format is physicochemical. The conditions noted are these: 37 °C, monitored over 96 h. How it is done:
d6/D2O mixture (70/30) spiked with 0.1 M NaCl for 96 hours, before HR -MS was conducted; these are […]
Stability Assay by NMR Spectroscopy
Compounds 1-4 (3-4 mg) were dissolved in a 500 µL mixture of 90% DMSO -d6 and 10% D2O. 1H and 31P NMR spectra were obtained by a Bruker Avance 500 MHz at room temperature and multiple time points over 4 days. A solution of sodium chloride in D2O (26.3 g/L, 143 µL) was added to the same samples (final concentration 0.1 M NaCl in 70 % DMSO-d6 and 30% D2O) to mimic the chloride concentration in blood. 1H and 31P NMR spectra were obtained by a Bruker Avance 500 MHz at room temperature and multiple time points over 4 days.
Stability Assays by UV/vis Spectroscopy
The compounds were dissolved in DMSO and added to fully supplemented DMEM phenol-red free media (see Cell Viability Assays section for all additives) under sterile conditions to obtain a final concentration of 60 µg/mL. UV/vis spectra were obtained every 30 min for 96 h at 37 °C.
as §1
MCF-7, MIA PaCa-2 and ARPE-19 in high glucose DMEM and MDA-MB-231 in RPMI-1640, and both media were supplemented with 10% FBS, 1 mM sodium pyruvate, 2 mM L-glutamine, and 1% pen-strep. All cells were initially grown in T-25 or T-75 flasks at 37 °C and 5% CO2. […] All solutions were then aspirated, DMSO (150 µL) added to each well, gently mixed, and the absorbance was measured at 540 nm using a ClarioStar spectrophotometer microplate reader. Results were plotted on a logarithmic scale, and the half maximal inhibitory concentration (IC50) was determined from a triplicate of triplicate repeats (n = 9) and reported as an IC 50 ± Standard Deviation (SD).

What is called IC50 is the concentration needed to halve the response being measured. The low end stands for greater potency, the high end for weaker potency. In the case of `N.N.O=C([O-])C1(C(=O)[O-])CCC1.[Pt+2]` [CARB, carboplatin, reference compound], the IC50 was > 100 µM with ARPE-19 cells; > 100 µM in the data set on MDA-MB-231 cells (MDA-MB-231, 24 h); 16 ± 1 µM in the data set with MDA-MB-231 cells (MDA-MB-231, 96 h); 40 ± 1 µM in the data set with MCF-7 cells; 40 ± 4 µM with MIA PaCa-2 cells. In addition, the “Selectivity index (SI)” value was > 6.3 with MDA-MB-231 cells, > 2.5 in the data set on MCF-7 cells and > 2.5 in the data set with MIA PaCa-2 cells.
With `[NH2][Pt]([NH2])([Cl])[Cl]` [CDDP, cisplatin, reference compound], the IC50 in the data set with ARPE-19 cells was 6 ± 0.2 µM; in the data set on MDA-MB-231 cells (MDA-MB-231, 24 h), > 100 µM; in the data set on MDA-MB-231 cells (MDA-MB-231, 96 h), 2.2 ± 0.3 µM; in the data set on MCF-7 cells, 6.1 ± 0.9 µM; with MIA PaCa-2 cells, 3.9 ± 0.6 µM. Also, the “Selectivity index (SI)” value with MDA-MB-231 cells was 2.7; with MCF-7 cells it was 1.0; in the data set on MIA PaCa-2 cells it was 1.5. For the same compound, the “Plasmid DNA migration” value with plasmid DNA is listed as “faster DNA migration”.
Take “[Cp*Ir(C16H12Cl2NO)(PTA)](PF6) [Compound 2]”: the IC50 in the data set with ARPE-19 cells was 16 ± 1 µM; in the data set on MDA-MB-231 cells (MDA-MB-231, 24 h), 21 ± 1 µM; with MDA-MB-231 cells (MDA-MB-231, 96 h) it was 5.4 ± 0.3 µM; in the data set on MCF-7 cells, 45.1 ± 0.8 µM; in the data set with MIA PaCa-2 cells, 14.9 ± 0.7 µM. In data set [1], the “Time to full decomposition (no further changes in UV/vis spectra)” value (“Time … (no further changes in UV/vis spectra)” for short) turned out to be 64 h. The “Selectivity index (SI)” value in the data set on MDA-MB-231 cells is 3.0; in the data set with MCF-7 cells it was 0.4; in the data set with MIA PaCa-2 cells, 1.1.
Turning to “[Cp*Ir(C16H13BrNO)(PTA)](PF6) [Compound 3]”, the half-inhibitory concentration (IC50) with ARPE-19 cells was determined as 14.6 ± 0.8 µM; in the data set on MDA-MB-231 cells (MDA-MB-231, 24 h), 22 ± 1 µM; in the data set with MDA-MB-231 cells (MDA-MB-231, 96 h), 4.8 ± 0.5 µM; in the data set on MCF-7 cells it was 32.4 ± 0.3 µM; in the data set with MIA PaCa-2 cells, 11.2 ± 0.1 µM. In data set [1], the “Time … (no further changes in UV/vis spectra)” value is “over 96 h”. Besides, the “Selectivity index (SI)” value with MDA-MB-231 cells is reported as 3.0; in the data set on MCF-7 cells, 0.5; with MIA PaCa-2 cells, 1.3.
Take “[Cp*Ir(C18H18NO2)(PTA)](PF6) [Compound 4]”: the IC50 turned out to be 10.7 ± 0.4 µM in the data set with ARPE-19 cells; 36 ± 1 µM with MDA-MB-231 cells (MDA-MB-231, 24 h); 4.1 ± 0.5 µM in the data set on MDA-MB-231 cells (MDA-MB-231, 96 h); 34.3 ± 0.6 µM with MCF-7 cells; 10 ± 1 µM in the data set with MIA PaCa-2 cells. The “Time … (no further changes in UV/vis spectra)” value in data set [1] came to 72 h. In addition, the “Selectivity index (SI)” value is reported as 2.6 in the data set on MDA-MB-231 cells, 0.3 in the data set with MCF-7 cells and 1.1 in the data set with MIA PaCa-2 cells.
